# Test results: patent US6355799B1, “Substituted benzene compounds, process for their preparation, and herbicidal and defoliant compositions containing them” (ISK Americas Incorporated, priority 1997, dated 2002)
# Tests used:
# Assay type in all cases: in vivo
# [1] = system: redroot pigweed (Amaranthus retroflexus, AMARE); test: Pre-emerge test, greenhouse herbicide activity screening; settings: rating scale 0-100, 14 days after application
# Outline: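 Compounds in acetone were track-sprayed at 187 l/ha, 15–1000 g ai/ha, onto sandy loam pots. Pre-emerge seeds were sown one day before spraying, with surface watering afterwards. Post-emerge plants were at the 2–3 leaf stage and sprayed with 0.25% v/v non-ionic surfactant. Injury was rated 0–100 at 14 days.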
# [2] = system: barnyardgrass (Echinochloa crus-galli, ECHCG); test: as above; settings: rating scale 0-100, 14 days after application
# Outline: (§1)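 Compounds in acetone were track-sprayed at 15–1000 g ai/ha: pre-emergence onto soil sown the previous day, then top-watered to incorporate and later bottom-watered; post-emergence onto 2–3 leaf plants with 0.25% v/v surfactant, bottom-watered only. Ratings on a 0–100 phytotoxicity scale were taken at day 14.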
# [3] = system: green foxtail (Setaria viridis, SETVI); test: as above; settings: rating scale 0-100, 14 days after application
# Outline: as §1
# [4] = system: ivyleaf morningglory (Ipomoea hederacea, IPOHE); test: as above; settings: rating scale 0-100, 14 days after application
# Outline: as §1
# [5] = system: johnsongrass (Sorghum halepense, SORHA); test: as above; settings: rating scale 0-100, 14 days after application
# Outline: as §1
# [6] = system: lambsquarters (Chenopodium album, CHEAL); test: as above; settings: rating scale 0-100, 14 days after application
# Outline: as §1
# [7] = system: large crabgrass (Digitaria sanguinalis, DIGSA); test: as above; settings: rating scale 0-100, 14 days after application
# Outline: as §1
# [8] = system: sicklepod (Cassia obtusifolia, CASOB); test: as above; settings: rating scale 0-100, 14 days after application
# Outline: as §1
# [9] = system: velvetleaf (Abutilon theophrasti, ABUTH); test: as above; settings: rating scale 0-100, 14 days after application
# Outline: as §1
# [10] = system: field corn (Zea mays L., var. Dekalb 535, CORN); test: Pre-emerge test, crop safety; settings: rating scale 0-100, 14 days after application
# Outline: (§2)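 Herbicidal damage is scored 0 (none) to 100 (complete plant death) two weeks after a simulated field spray. Rates span 15–1000 g ai/ha, delivered in acetone at 187 l/ha. For post-emergence treatments, plants have 2–3 leaves and the spray carries 0.25% v/v non-ionic surfactant.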
# [11] = system: upland rice (Oryza sp., var. Tebonnet, RICE); test: Pre-emerge test, crop safety; settings: rating scale 0-100, 14 days after application
# Outline: as §2
# [12] = system: barnyardgrass (Echinochloa crus-galli, ECHCG); test: Post-emerge test, greenhouse herbicide activity screening; settings: rating scale 0-100 (0 no damage, 100 complete death), 14 days after application
# Outline: (§3)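 Compounds in acetone were track-sprayed at 15-1000 g ai/ha (187 l/ha) on sandy loam pots: pre-emerge one day after seeding, post-emerge at 2-3 leaf stage with 0.25% v/v non-ionic surfactant. Phytotoxicity was rated 14 days later on a 0 (no damage) to 100 (complete death) scale.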
# [13] = system: common ragweed (Ambrosia artemisizfolia L., AMBEL); test: as above; settings: rating scale 0-100 (0 no damage, 100 complete death), 14 days after application
# Outline: as §3
# [14] = system: green foxtail (Setaria viridis, SETVI); test: as above; settings: rating scale 0-100 (0 no damage, 100 complete death), 14 days after application
# Outline: as §3
# [15] = system: ivyleaf morningglory (Ipomoea hederacea, IPOHE); test: as above; settings: rating scale 0-100 (0 no damage, 100 complete death), 14 days after application
# Outline: as §3
# [16] = system: johnsongrass (Sorghum halepense, SORHA); test: as above; settings: rating scale 0-100 (0 no damage, 100 complete death), 14 days after application
# Outline: as §3
# [17] = system: lambsquarters (Chenopodium album, CHEAL); test: as above; settings: rating scale 0-100 (0 no damage, 100 complete death), 14 days after application
# Outline: as §3
# [18] = system: large crabgrass (Digitaria sanguinalis, DIGSA); test: as above; settings: rating scale 0-100 (0 no damage, 100 complete death), 14 days after application
# Outline: as §3
# [19] = system: redroot pigweed (Amaranthus retroflexus, AMARE); test: as above; settings: rating scale 0-100 (0 no damage, 100 complete death), 14 days after application
# Outline: as §3
# [20] = system: sicklepod (Cassia obtusifolia, CASOB); test: as above; settings: rating scale 0-100 (0 no damage, 100 complete death), 14 days after application
# Outline: as §3
# [21] = system: velvetleaf (Abutilon theophrasti, ABUTH); test: as above; settings: rating scale 0-100 (0 no damage, 100 complete death), 14 days after application
# Outline: as §3
# [22] = system: field corn (Zea mays L., var. Dekalb 535, CORN); test: Post-emerge test, crop safety; settings: rating scale 0-100 (0 no damage, 100 complete death), 14 days after application
# Outline: (§4)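 Rating: 0–100 visual injury, 14 DAA. Application: acetone, 187 l/ha, 15–1000 g ai/ha, flat-fan track sprayer with nozzle 40–45 cm above soil or canopy. Post-emerge runs used 0.25% v/v surfactant on 2–3 leaf plants.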
# [23] = system: upland rice (Oryza sp., var. Tebonnet, RICE); test: Post-emerge test, crop safety; settings: rating scale 0-100 (0 no damage, 100 complete death), 14 days after application
# Outline: as §4
smiles,measurement,setting,value
CCOC(=O)C(C)(Cl)Cc1c(OC)c(Cl)cc(F)c1-n1c(=O)cc(C(F)(F)F)n(C)c1=O (stereo not shown) [14-34],"Pre-emerge herbicidal activity, phytotoxicity rating AMARE",[1]; 63 g ai/ha,100
same,"Pre-emerge herbicidal activity, phytotoxicity rating AMARE",[1]; 250 g ai/ha,100
same,"Pre-emerge herbicidal activity, phytotoxicity rating ECHCG",[2]; 63 g ai/ha,20
same,"Pre-emerge herbicidal activity, phytotoxicity rating ECHCG",[2]; 250 g ai/ha,90
same,"Pre-emerge herbicidal activity, phytotoxicity rating SETVI",[3]; 63 g ai/ha,30
same,"Pre-emerge herbicidal activity, phytotoxicity rating SETVI",[3]; 250 g ai/ha,100
same,"Pre-emerge herbicidal activity, phytotoxicity rating IPOHE",[4]; 63 g ai/ha,10
same,"Pre-emerge herbicidal activity, phytotoxicity rating IPOHE",[4]; 250 g ai/ha,10
same,"Pre-emerge herbicidal activity, phytotoxicity rating SORHA",[5]; 63 g ai/ha,0
same,"Pre-emerge herbicidal activity, phytotoxicity rating SORHA",[5]; 250 g ai/ha,30
same,"Pre-emerge herbicidal activity, phytotoxicity rating CHEAL",[6]; 63 g ai/ha,95
same,"Pre-emerge herbicidal activity, phytotoxicity rating CHEAL",[6]; 250 g ai/ha,100
same,"Pre-emerge herbicidal activity, phytotoxicity rating DIGSA",[7]; 63 g ai/ha,90
same,"Pre-emerge herbicidal activity, phytotoxicity rating DIGSA",[7]; 250 g ai/ha,100
same,"Pre-emerge herbicidal activity, phytotoxicity rating CASOB",[8]; 63 g ai/ha,20
same,"Pre-emerge herbicidal activity, phytotoxicity rating CASOB",[8]; 250 g ai/ha,10
same,"Pre-emerge herbicidal activity, phytotoxicity rating ABUTH",[9]; 63 g ai/ha,100
same,"Pre-emerge herbicidal activity, phytotoxicity rating ABUTH",[9]; 250 g ai/ha,100
same,"Pre-emerge phytotoxicity rating, crop damage CORN",[10]; 63 g ai/ha,0
same,"Pre-emerge phytotoxicity rating, crop damage CORN",[10]; 250 g ai/ha,25
same,"Pre-emerge phytotoxicity rating, crop damage RICE",[11]; 63 g ai/ha,20
same,"Pre-emerge phytotoxicity rating, crop damage RICE",[11]; 250 g ai/ha,90
same,"Post-emerge Herbicidal Activity, phytotoxicity rating ECHCG",[12]; Rate 63 g ai/ha,100
same,"Post-emerge Herbicidal Activity, phytotoxicity rating ECHCG",[12]; Rate 250 g ai/ha,100
same,"Post-emerge Herbicidal Activity, phytotoxicity rating AMBEL",[13]; Rate 63 g ai/ha,40
same,"Post-emerge Herbicidal Activity, phytotoxicity rating AMBEL",[13]; Rate 250 g ai/ha,100
same,"Post-emerge Herbicidal Activity, phytotoxicity rating SETVI",[14]; Rate 63 g ai/ha,100
same,"Post-emerge Herbicidal Activity, phytotoxicity rating SETVI",[14]; Rate 250 g ai/ha,100
same,"Post-emerge Herbicidal Activity, phytotoxicity rating IPOHE",[15]; Rate 63 g ai/ha,60
same,"Post-emerge Herbicidal Activity, phytotoxicity rating IPOHE",[15]; Rate 250 g ai/ha,90
same,"Post-emerge Herbicidal Activity, phytotoxicity rating SORHA",[16]; Rate 63 g ai/ha,60
same,"Post-emerge Herbicidal Activity, phytotoxicity rating SORHA",[16]; Rate 250 g ai/ha,80
same,"Post-emerge Herbicidal Activity, phytotoxicity rating CHEAL",[17]; Rate 63 g ai/ha,100
same,"Post-emerge Herbicidal Activity, phytotoxicity rating CHEAL",[17]; Rate 250 g ai/ha,100
same,"Post-emerge Herbicidal Activity, phytotoxicity rating DIGSA",[18]; Rate 63 g ai/ha,70
same,"Post-emerge Herbicidal Activity, phytotoxicity rating DIGSA",[18]; Rate 250 g ai/ha,99
same,"Post-emerge Herbicidal Activity, phytotoxicity rating AMARE",[19]; Rate 63 g ai/ha,100
same,"Post-emerge Herbicidal Activity, phytotoxicity rating AMARE",[19]; Rate 250 g ai/ha,100
same,"Post-emerge Herbicidal Activity, phytotoxicity rating CASOB",[20]; Rate 63 g ai/ha,40
same,"Post-emerge Herbicidal Activity, phytotoxicity rating CASOB",[20]; Rate 250 g ai/ha,100
same,"Post-emerge Herbicidal Activity, phytotoxicity rating ABUTH",[21]; Rate 63 g ai/ha,99
same,"Post-emerge Herbicidal Activity, phytotoxicity rating ABUTH",[21]; Rate 250 g ai/ha,100
same,Post-emerge phytotoxicity rating CORN (crop damage),[22]; Rate 63 g ai/ha,80
same,Post-emerge phytotoxicity rating CORN (crop damage),[22]; Rate 250 g ai/ha,100
same,Post-emerge phytotoxicity rating RICE (crop damage),[23]; Rate 63 g ai/ha,25
same,Post-emerge phytotoxicity rating RICE (crop damage),[23]; Rate 250 g ai/ha,70
